Measurements from the NIST ThermoML archive (doi:10.1021/je0340755).

Assay: xn = mol fraction of the nth substance listed
Conditions: 101.3 kPa, Liquid; for viscosity: Capillary tube (Ostwald / Ubbelohde) method

CC(O)CCO (stereo not given) [1,3-butanediol] + O
Conditions	mass density [kg/m3]	speed of sound [m/s]	viscosity [mPa·s]
298.15 K, x2 = 0.045	1001	1544.1	92.65
298.15 K, x2 = 0.1445	1003.36	1569.1	81.12
298.15 K, x2 = 0.2499	1006.05	1594.2	67.64
298.15 K, x2 = 0.3526	1008.62	1613.2	54.19
298.15 K, x2 = 0.4519	1011.07	1631.1	41.72
298.15 K, x2 = 0.5035	1012.39	1643.5	35.66
298.15 K, x2 = 0.5563	1013.79	1652.1	29.86
298.15 K, x2 = 0.6507	1016.24	1682	20.66
298.15 K, x2 = 0.7518	1017.77	1702	12.64
298.15 K, x2 = 0.8477	1015.59	1681.6	6.82
298.15 K, x2 = 0.9081	1010.74	1673.4	4.008
298.15 K, x2 = 0.9152	1009.95	1660.2	3.719
298.15 K, x2 = 0.9253	1008.73	1645	3.322
298.15 K, x2 = 0.9355	1007.4	1615.2	2.937
298.15 K, x2 = 0.9521	1005.03	1610.8	2.348
298.15 K, x2 = 0.9543	1004.7	1599.6	2.273
298.15 K, x2 = 0.9597	1003.86	1576.9	2.093
298.15 K, x2 = 0.9699	1002.22	1551.3	1.765
298.15 K, x2 = 0.9804	1000.46	1525.7	1.444
298.15 K, x2 = 0.9901	998.79	1519.4	1.163
298.15 K, x2 = 0.9924	998.38	1510.8	1.098
298.15 K, x2 = 0.9955	997.84	1527.6	1.012
308.15 K, x2 = 0.045	995.14	1500.6	49.94
308.15 K, x2 = 0.1445	997.4	1520.3	43.43
308.15 K, x2 = 0.2499	999.97	1538.6	36.09
308.15 K, x2 = 0.3526	1002.45	1561.8	29.07
308.15 K, x2 = 0.4519	1004.84	1585.2	22.69
308.15 K, x2 = 0.5035	1006.14	1597	19.58
308.15 K, x2 = 0.5563	1007.52	1609.3	16.57
308.15 K, x2 = 0.6507	1009.99	1634.5	11.66
308.15 K, x2 = 0.7518	1011.69	1666.3	7.207
308.15 K, x2 = 0.8477	1010.07	1684	3.905
308.15 K, x2 = 0.9081	1005.92	1665.1	2.337
308.15 K, x2 = 0.9152	1005.23	1659.9	2.179
308.15 K, x2 = 0.9253	1004.18	1657.3	1.965
308.15 K, x2 = 0.9355	1003.02	1640.7	1.759
308.15 K, x2 = 0.9521	1000.96	1619.1	1.45
308.15 K, x2 = 0.9543	1000.67	1615.8	1.411
308.15 K, x2 = 0.9597	999.94	1607.2	1.318
308.15 K, x2 = 0.9699	998.52	1589	1.15
308.15 K, x2 = 0.9804	996.99	1567.4	0.99
308.15 K, x2 = 0.9901	995.53	1544.6	0.851
308.15 K, x2 = 0.9924	995.19	1536.8	0.819
308.15 K, x2 = 0.9955	994.71	1530.7	0.778
318.15 K, x2 = 0.045	989.57	1474.8	28.95
318.15 K, x2 = 0.1445	991.66	1492.5	25.16
318.15 K, x2 = 0.2499	994.06	1509.5	20.85
318.15 K, x2 = 0.3526	996.38	1531.8	16.64
318.15 K, x2 = 0.4519	998.64	1554.7	12.79
318.15 K, x2 = 0.5035	999.86	1566.6	10.94
318.15 K, x2 = 0.5563	1001.18	1579.1	9.164
318.15 K, x2 = 0.6507	1003.55	1604.8	6.346
318.15 K, x2 = 0.7518	1005.28	1638.6	3.879
318.15 K, x2 = 0.8477	1004.06	1662.4	2.11
318.15 K, x2 = 0.9081	1000.51	1652.9	1.304
318.15 K, x2 = 0.9152	999.92	1649.3	1.226
318.15 K, x2 = 0.9253	999	1643	1.122
318.15 K, x2 = 0.9355	998	1635.1	1.024
318.15 K, x2 = 0.9521	996.21	1618.5	0.881
318.15 K, x2 = 0.9543	995.96	1616	0.864
318.15 K, x2 = 0.9597	995.33	1609.2	0.824
318.15 K, x2 = 0.9699	994.09	1594.8	0.753
318.15 K, x2 = 0.9804	992.76	1577.4	0.69
318.15 K, x2 = 0.9901	991.5	1558.9	0.639
318.15 K, x2 = 0.9924	991.2	1554.1	0.628
318.15 K, x2 = 0.9955	990.8	1547.5	0.615
328.15 K, x2 = 0.045	980.01	1456.8	17.94
328.15 K, x2 = 0.1445	982.02	1473	15.5
328.15 K, x2 = 0.2499	984.33	1489.7	12.68
328.15 K, x2 = 0.3526	986.62	1509.9	9.939
328.15 K, x2 = 0.4519	988.88	1530.8	7.454
328.15 K, x2 = 0.5035	990.12	1542.3	6.269
328.15 K, x2 = 0.5563	991.47	1554.1	5.15
328.15 K, x2 = 0.6507	993.99	1579.6	3.415
328.15 K, x2 = 0.7518	996.11	1612.2	1.97
328.15 K, x2 = 0.8477	995.8	1638.8	1.028
328.15 K, x2 = 0.9081	993.31	1635.3	0.666
328.15 K, x2 = 0.9152	992.87	1633	0.636
328.15 K, x2 = 0.9253	992.19	1628.7	0.598
328.15 K, x2 = 0.9355	991.44	1622.5	0.565
328.15 K, x2 = 0.9521	990.11	1610.6	0.525
328.15 K, x2 = 0.9543	989.92	1608.3	0.521
328.15 K, x2 = 0.9597	989.45	1603.1	0.512
328.15 K, x2 = 0.9699	988.53	1591.7	0.5
328.15 K, x2 = 0.9804	987.55	1578.7	0.495
328.15 K, x2 = 0.9901	986.62	1563.6	0.496
328.15 K, x2 = 0.9924	986.41	1559.6	0.497
328.15 K, x2 = 0.9955	986.11	1555	0.499
338.15 K, x2 = 0.045	972.67	1438.1	11.63
338.15 K, x2 = 0.1445	974.54	1452.7	9.961
338.15 K, x2 = 0.2499	976.7	1468.1	8.015
338.15 K, x2 = 0.3526	978.84	1486.2	6.116
338.15 K, x2 = 0.4519	980.99	1506.1	4.415
338.15 K, x2 = 0.5035	982.18	1516.1	3.616
338.15 K, x2 = 0.5563	983.48	1527.9	2.874
338.15 K, x2 = 0.6507	985.94	1552	1.759
338.15 K, x2 = 0.7518	988.14	1584.1	0.895
338.15 K, x2 = 0.8477	988.28	1611.3	0.418
338.15 K, x2 = 0.9081	986.44	1614.1	0.302
338.15 K, x2 = 0.9152	986.1	1612.4	0.299
338.15 K, x2 = 0.9253	985.58	1609.7	0.298
338.15 K, x2 = 0.9355	985	1606.3	0.301
338.15 K, x2 = 0.9521	983.95	1597.7	0.317
338.15 K, x2 = 0.9543	983.8	1596.6	0.32
338.15 K, x2 = 0.9597	983.44	1592.9	0.329
338.15 K, x2 = 0.9699	982.72	1585.4	0.348
338.15 K, x2 = 0.9804	981.96	1575.5	0.374
338.15 K, x2 = 0.9901	981.25	1565.5	0.403
338.15 K, x2 = 0.9924	981.09	1561.7	0.411
338.15 K, x2 = 0.9955	980.87	1558.4	0.422
